From ChEMBL document CHEMBL5209583, “pH biosensor based assay for SLC9B2 using HEK-293 SLC9B2 OE cells” (2022)

Biological target: T1, Sodium/hydrogen exchanger 9B2 (Homo sapiens, UniProt Q86UD5)
T1 sequence (Q86UD5 whole entry): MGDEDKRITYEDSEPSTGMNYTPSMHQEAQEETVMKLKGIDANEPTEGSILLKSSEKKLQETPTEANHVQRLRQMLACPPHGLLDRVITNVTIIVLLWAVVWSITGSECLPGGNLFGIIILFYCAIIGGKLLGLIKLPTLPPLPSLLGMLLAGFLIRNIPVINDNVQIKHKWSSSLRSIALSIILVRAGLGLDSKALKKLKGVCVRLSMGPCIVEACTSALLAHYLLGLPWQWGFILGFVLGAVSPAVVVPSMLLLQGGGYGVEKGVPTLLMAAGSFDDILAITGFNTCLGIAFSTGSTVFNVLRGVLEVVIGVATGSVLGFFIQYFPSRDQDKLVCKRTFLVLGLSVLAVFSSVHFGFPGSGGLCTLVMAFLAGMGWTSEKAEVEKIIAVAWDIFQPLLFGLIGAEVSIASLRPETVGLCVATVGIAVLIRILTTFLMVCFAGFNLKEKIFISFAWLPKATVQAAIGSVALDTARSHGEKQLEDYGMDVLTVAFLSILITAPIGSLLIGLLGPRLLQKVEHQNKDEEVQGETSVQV
Assay: Inhibition of the Sodium/Hydrogen Exchanger-Like Domain-Containing Protein 2 (NHA2, SLC9B2) as assessed by a sensor pH-sensitive genetically encoded fluorescent sensor (pHAxensor) in HEK-293 cells stably transfected with SLC9B2 (PubChem AID: 1794821)
Assay type: functional, cell-based, HEK293

## O=C(CCc1ccc(O)cc1)c1c(O)cc(O)cc1O [PHLORETIN]
  IC50: 90 µM
